Measured values as given in EP0983764A1, “PREVENTIVES FOR ISCHEMIC HEART DISEASES” (TAISHO PHARMACEUTICAL CO. LTD, priority 1997, dated 1998).
Read-outs that look alike come from different tables or passages of the source. Marks after values point to notes of the source that are not given here.

Legend:
[1] = system: cholesterol-loading rabbits; experiment: Antiarteriosclerotic activity in a model for the treatment of arteriosclerosis in cholesterol-loading rabbits; assay type: in vivo, rabbits (NZW strain male); details: for inhibition at 3 mg/kg: Oryctolagus cuniculus
Method: As test animals were used a group of 10 rabbits previously fed with a 1% cholesterol-enriched feed to develop atherosclerosis (of 5 months, NZW strain male; available from Kitayama RABES K.K.)
A group of rabbits with arteriosclerosis were fed with a normal feed for rabbits RC-4 (available from Oriental Kobo K-K.) for 3 months and then adopted as a control group, while the compound of the invention was orally administered to a medicated group at 3 mg/kg once per day during this period.
After blood collection, the common carotid artery and the aorta were excised and a certain site thereof was fixed with 10% neutral buffered formalin to prepare a slice of the arterial tissue. Elastin elastic fiber-stained preparations were prepared by Elastic Van Gieson (EVG) staining, fat-stained preparations were prepared by Oil Red O staining and smooth muscle-stained preparations were prepared by anti-human α-actin antibody 1A4 staining.
A degree of intimal elastin fibrogenesis and a degree of medium lipid deposition were assessed in terms of 5 scores on elastin-positve and lipid staining-positive intensities (Grade; 0: No changes, 1: Minimum, 2: Mild, 3: Moderate, and 4: Severe). Areas of the intima (I) and of the medium (M) were measured by means of an image analysis system (Adobe Photoshop, Unitimage for the Apple Macintosh) and a ratio of both values (I/M) was calculated.
An elastin density of the fibrous cap in the intimal surface was calculated in terms of a ratio of the elastin-positive area to a given area of the intimal surface. A ratio of the α-actin-positive area to the intimal surface area at a similar site was defined as a smooth muscle density. Cholesterol was extracted from a portion of the excised aorta with a solution of chloroform : methanol (2:1) and was assayed according to an enzyme method (Cholesterol CII-Test WAKO, Free Cholesterol C-TEST WAKO, Wako Pure Chemical Industries, Ltd.)
(§1) A total blood cholesterol level was measured according to an enzyme method (Autosera CHO-2, Daiichi Kagaku Yakuhin K.K.) using an autoanalyzer (Hitachi 7150 type).

[2] = system: high fat-loading hamsters; experiment: Antiarteriosclerotic activity in a model for the treatment of arteriosclerosis in high fat-loading hamsters; assay type: in vivo, male golden hamsters; details: for Degree of lipid deposition on the arterial wall: 10 weeks, aortic arch, Oil Red O; for Degree of lipid deposition on the arterial wall / Total blood cholesterol: Means ± S.E. (n=5); for Total blood cholesterol: in high fat diet for 10 weeks
Text: As test animals were used a group of 5 male golden hamsters of 6 weeks (available from Nihon SLC K.K.) Hamsters were fed with the following high fat diet for 10 weeks to prepare a model for arteriosclerosis.
During this period, the compound of the invention was continuously administered to a medicated group, simultaneously with feeding.
After blood collection, the aortic arch was excised and the adventitia was completely stripped off under microscopic observation. The tissue after fixed with 10% neutral buffered formalin was fat-stained with an Oil Red O solution and enclosed in a glycerol-gelatin solution on a slide glass to prepare a tissue preparation.
An area of the fat-stained site (µm^2) and an area of the artery (mm^2) were measured by means of an image analysis system (Adobe Photoshop, Unitimage for the Apple Macintosh) and a ratio of both values was calculated to determine a degree of lipid deposition on the arterial wall.
as §1
The drug was given in admixture with a high fat diet at the concentrations of 0.003% and of 0.03%, and a dose was calculated from the amount of feed ingested and the body weight.
Composition of a high fat diet: A feed for rats MF (available from Oriental Kobo K.K.) to which 10% coconut oil and 0.05% cholesterol were supplemented. (Results)

[3] = system: hereditary hyperlipemic WHHL rabbits; experiment: Antiarteriosclerotic activity in hereditary hyperlipemic WHHL rabbits; assay type: in vivo; details: for Total cholesterol in the arterial wall: 18 months, aorta; for Total cholesterol in the arterial wall / Total blood cholesterol / Intimal cholesterol deposition / Intimal surface elastin/collagen / Intimal collagen / Intimal elastin / Medium Elastin: Mean ± S.E.; for Total blood cholesterol: in feed over 18 months, at autopsy; for Intimal cholesterol deposition: plaque components in aortic arteriosclerosis; for Intimal cholesterol deposition / Intimal collagen / Intimal elastin / Medium Elastin: score, Grade 0-4; for Intimal surface elastin/collagen: ratio
Text: The compound of the invention was continuously administered to rabbits of 2 months with hereditary hyperlipemia (WHHL rabbits, available from Kitayama RABES K.K.) over 18 months and then the rabbits were autopsied.
A portion of the aorta was fixed with 10% neutral buffered formalin and then embedded in paraffin or freeze-embedded to prepare a slice of the arterial tissue. The slice was stained with Hematoxylin and Eosin (HE), Elastic Van Gieson (EVG), Azan-Mallory, and Oil Red O. A positive rate was assessed under microscopic observation in terms of 5 scores (Grade; 0: No changes, 1: Minimum, 2: Mild, 3: Moderate, and 4: Severe) to measure changes in components in the arteriosclerotic lesion. For another portion of the aorta, cholesterol was extracted with a solution of chloroform methanol (2:1) and a total cholesterol level in the arterial wall was assayed according to an enzyme method (Cholesterol CII-Test WAKO, Wako Pure Chemical Industries, Ltd.)
A total blood cholesterol level value at the autopsy was measured according to an enzyme method (Autosera CHO-2, Daiichi Kagaku Yakuhin K.K.) using an autoanalyzer (Hitachi 7150 type).
The drug was mixed into a feed for rabbits RC-4 (Oriental Kobo K.K.) at the concentrations of 0.005% and of 0.05%, and the resulting feed was given daily between 9:00 a.m. and 11:30 a.m. while the feed was restricted to 20 g/kg of body weight.

[4] = 3 mg/kg orally once per day, 3 months, aorta
[5] = 3 mg/kg, score, Grade 0: No change to 4: Severe, Mean ± S.E.

CCCCCCCCCCCCCCSCC(=O)Nc1c(C(C)C)cccc1C(C)C [Compound of the invention]
Total blood cholesterol ([1]; 3 mg/kg orally once per day, 3 months): 113.4 ± 38.6 mg/dL | Degree of intimal thickening in the common carotid artery ([1]; 3 mg/kg orally once per day, 3 months, I/M = Area of the intima/Area of the medium): 0.45±0.18 I/M | Cholesteryl ester in the arterial wall [1, 4]: 219.1 ± 18.4 mg/g | Free cholesterol in the arterial wall [1, 4]: 119.1 ± 12.2 mg/g | Total cholesterol in the arterial wall [1, 4]: 338.2 ± 29.9 mg/g | Elastin density in the intimal surface ([1]; 3 mg/kg, ratio of elastin-positive area to a given area of the intimal surface): 151±30 | Density of smooth muscle in the intimal surface ([1]; 3 mg/kg, ratio of α-actin-positive area to the intimal surface area): 614±35 | Degree of intimal elastin fibrogenesis [1, 5]: 1.7±0.2 | Degree of medium lipid deposition [1, 5]: 1.2±0.1 | Degree of intimal elastin fibrogenesis Acceleration (%) ([1]; 3 mg/kg, vs. control group): 112.5% | Density of smooth muscle in the intimal surface Acceleration (%) ([1]; 3 mg/kg, vs. control group): 18.5% | Elastin density in the intimal surface Acceleration (%) ([1]; 3 mg/kg, vs. control group): 37.0% | inhibition at 3 mg/kg ([1]; 3 mg/kg, vs. control group, read-out: Cholesteryl ester in the arterial wall Inhibition (%)): 24.1% | inhibition at 3 mg/kg ([1]; 3 mg/kg, vs. control group, read-out: Degree of intimal thickening in the common carotid artery Inhibition (%)): 55.9% | inhibition at 3 mg/kg ([1]; 3 mg/kg, vs. control group, read-out: Degree of medium lipid deposition Inhibition (%)): 47.8% | regressing a degree of intimal thickening ([1]; aortic arch, phase of the complete plaque): no action of regressing a degree of intimal thickening | Degree of lipid deposition on the arterial wall ([2]; 1.5 mg/kg): 217.5±40.5* µm^2/mm^2 | Total blood cholesterol ([2]; 1.5 mg/kg): 372.0 ± 35.5 mg/dL | Degree of lipid deposition on the arterial wall ([2]; 15 mg/kg): 46.2± 8.6** µm^2/mm^2 | Total blood cholesterol ([2]; 15 mg/kg): 231.2 ± 4.9 mg/dL | inhibition at 1.5 mg/kg ([2]; Mesocricetus auratus, 1.5 mg/kg, vs. control group, read-out: Degree of lipid deposition on the arterial wall Inhibition (%)): 67.3% | inhibition at 15 mg/kg ([2]; Mesocricetus auratus, 15 mg/kg, vs. control group, read-out: Degree of lipid deposition on the arterial wall Inhibition (%)): 93.1% | Total cholesterol in the arterial wall ([3]; 1 mg/kg): 29.3 ± 4.8 mg/g | Total blood cholesterol ([3]; 1 mg/kg): 462 ± 13 mg/dL | Intimal cholesterol deposition ([3]; 1 mg/kg): 2.6±0.2 | Intimal surface elastin/collagen ([3]; 1 mg/kg): 1.26±0.24 | Intimal collagen ([3]; 1 mg/kg): 3.0±0.2 | Intimal elastin ([3]; 1 mg/kg): 1.5±0.2 | Medium Elastin ([3]; 1 mg/kg): 0.93±0.20 | Total cholesterol in the arterial wall ([3]; 10 mg/kg): 32.2 ± 2.6 mg/g | Total blood cholesterol ([3]; 10 mg/kg): 438 ± 20 mg/dL | Intimal cholesterol deposition ([3]; 10 mg/kg): 2.2±0.1 | Intimal surface elastin/collagen ([3]; 10 mg/kg): 2.01±0.36 | Intimal collagen ([3]; 10 mg/kg): 3.0±0.1 | Intimal elastin ([3]; 10 mg/kg): 1.8±0.2 | Medium Elastin ([3]; 10 mg/kg): 1.59±0.09 | inhibition at 1 mg/kg ([3]; Oryctolagus cuniculus, 1 mg/kg, vs. control group, read-out: Total cholesterol in the arterial wall Inhibition (%)): 26.4% | inhibition at 10 mg/kg ([3]; Oryctolagus cuniculus, 10 mg/kg, vs. control group, read-out: Total cholesterol in the arterial wall Inhibition (%)): 19.1% | action on endothelial cells ([3]; old WHHL rabbit lesion): compacting endothelial cells
